Test results taken from patent publication US12421253B2 (Mirati Therapeutics, Inc., priority 2020, dated 2025).

Legend:
KRas^Q61H = KRas^Q61H (Homo sapiens, UniProt P01116, Q61H); experiment: biochemical
KRas^G12R = molecular target: T1, KRas^G12R (Homo sapiens, UniProt P01116, G12R); experiment: KRas binding assay (TR-FRET displacement of Cy5 labelled tracer)
T1 construct: […]; biotin (biotinylated); purchased Accelegan Inc

KRas^G12C = KRas^G12C (Homo sapiens, UniProt P01116, G12C); experiment: biochemical
Chain of KRas^G12C (P01116 1-169 isoform P01116-2 G12C): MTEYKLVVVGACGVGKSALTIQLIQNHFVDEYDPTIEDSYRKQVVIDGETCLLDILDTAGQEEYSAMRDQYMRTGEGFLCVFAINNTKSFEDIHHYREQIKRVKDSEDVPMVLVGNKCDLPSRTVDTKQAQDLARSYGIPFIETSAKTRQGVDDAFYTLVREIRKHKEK

KRas^WT = molecular target: T2, KRas^WT (Homo sapiens, UniProt P01116); experiment: KRas binding assay (TR-FRET displacement of Cy5 labelled tracer)
T2 construct: […]; biotin (biotinylated); purchased Accelegan Inc
T2 sequence (P01116 1-169 isoform P01116-2): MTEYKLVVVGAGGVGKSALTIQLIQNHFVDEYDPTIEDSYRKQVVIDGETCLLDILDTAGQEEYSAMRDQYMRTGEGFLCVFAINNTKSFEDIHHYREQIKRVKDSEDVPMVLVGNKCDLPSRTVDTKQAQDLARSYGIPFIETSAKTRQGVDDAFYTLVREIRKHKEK

KRas^G12A = molecular target: T3, KRas^G12A (Homo sapiens, UniProt P01116, G12A); experiment: as above
T3 construct: […]; biotin (biotinylated); purchased Accelegan Inc
T3 sequence (P01116 1-169 isoform P01116-2 G12A): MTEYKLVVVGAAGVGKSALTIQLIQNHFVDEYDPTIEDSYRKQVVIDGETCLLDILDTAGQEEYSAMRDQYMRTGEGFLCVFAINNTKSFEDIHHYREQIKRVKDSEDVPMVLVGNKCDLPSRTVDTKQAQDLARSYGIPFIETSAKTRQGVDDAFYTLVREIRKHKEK

KRas^G13D = KRas^G13D (Homo sapiens, UniProt P01116, G13D); experiment: biochemical
Chain of KRas^G13D (P01116 1-169 isoform P01116-2 G13D): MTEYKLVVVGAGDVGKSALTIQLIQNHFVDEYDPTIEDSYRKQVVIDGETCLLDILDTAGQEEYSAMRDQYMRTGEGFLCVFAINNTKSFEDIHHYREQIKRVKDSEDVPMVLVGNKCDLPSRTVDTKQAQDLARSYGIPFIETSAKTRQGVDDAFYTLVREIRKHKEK

KRas^G12V = molecular target: T4, KRas^G12V (Homo sapiens, UniProt P01116, G12V); experiment: KRas binding assay (TR-FRET displacement of Cy5 labelled tracer)
T4 construct: […]; biotin (biotinylated); purchased Accelegan Inc
T4 sequence (P01116 1-169 isoform P01116-2 G12V): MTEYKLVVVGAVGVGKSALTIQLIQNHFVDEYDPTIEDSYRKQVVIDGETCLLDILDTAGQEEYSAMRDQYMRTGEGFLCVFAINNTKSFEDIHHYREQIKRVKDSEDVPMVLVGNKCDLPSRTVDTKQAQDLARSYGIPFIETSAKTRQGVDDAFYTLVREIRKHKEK

KRas^G12D = molecular target: T5, KRas^G12D (Homo sapiens, UniProt P01116, G12D); experiment: as above
T5 construct: […]; biotin (biotinylated); purchased Accelegan Inc
T5 sequence (P01116 1-169 isoform P01116-2 G12D): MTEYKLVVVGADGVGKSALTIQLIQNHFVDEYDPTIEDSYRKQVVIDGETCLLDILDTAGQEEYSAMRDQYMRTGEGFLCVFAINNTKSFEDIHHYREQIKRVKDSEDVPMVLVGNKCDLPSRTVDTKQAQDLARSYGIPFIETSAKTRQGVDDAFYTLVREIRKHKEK

KRas^G12S = molecular target: T6, KRas^G12S (Homo sapiens, UniProt P01116, G12S); experiment: as above
T6 construct: […]; biotin (biotinylated); purchased Accelegan Inc
T6 sequence (P01116 1-169 isoform P01116-2 G12S): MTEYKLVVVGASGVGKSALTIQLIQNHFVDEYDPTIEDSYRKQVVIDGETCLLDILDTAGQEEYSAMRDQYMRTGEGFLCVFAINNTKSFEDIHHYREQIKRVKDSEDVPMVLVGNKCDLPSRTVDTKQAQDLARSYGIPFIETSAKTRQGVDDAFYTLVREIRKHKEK

Chain of KRas^Q61H (P01116 1-169 isoform P01116-2 Q61H): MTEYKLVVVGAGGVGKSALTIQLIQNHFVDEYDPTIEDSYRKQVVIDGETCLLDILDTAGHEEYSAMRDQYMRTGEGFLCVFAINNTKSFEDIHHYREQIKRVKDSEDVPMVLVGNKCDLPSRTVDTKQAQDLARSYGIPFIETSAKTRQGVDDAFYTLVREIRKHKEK
T1 sequence (P01116 1-169 isoform P01116-2 G12R): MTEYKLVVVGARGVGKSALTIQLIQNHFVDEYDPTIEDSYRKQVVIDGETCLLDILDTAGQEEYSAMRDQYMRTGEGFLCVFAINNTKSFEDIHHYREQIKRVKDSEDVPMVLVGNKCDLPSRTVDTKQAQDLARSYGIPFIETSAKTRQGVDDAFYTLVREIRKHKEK

Compound | IC50 (KRas^Q61H) [nM] | IC50 (KRas^G12R) [nM] | IC50 (KRas^G12C) [nM] | IC50 (KRas^WT) [nM] | IC50 (KRas^G12A) [nM] | IC50 (KRas^G13D) [nM] | IC50 (KRas^G12V) [nM] | IC50 (KRas^G12D) [nM] | IC50 (KRas^G12S) [nM]
CCc1cccc2cccc(N3CCc4c(nc(OCC56CCCN5CCC6)nc4N4CCCn5nc(CO)cc5C4)C3)c12 [Example 8, (5-(7-(8-ethylnaphthalen-1-yl)-2-((tetrahydro-1H-pyrrolizin-7a(5H)-yl)methoxy)-5,6,7,8-tetrahydropyrido[3,4-d]pyrimidin-4-yl)-5,6,7,8-tetrahydro-4H-pyrazolo[1,5-a][1,4]diazepin-2-yl)methanol] | 567 | 102 | 139 | 271 | 316 | 628 | 137 | 43 | 175
CCc1cccc2cccc(N3CCc4c(nc(OCC56CCCN5CCC6)nc4N4CCCC(c5nc(N)n(C)n5)C4)C3)c12 (stereo not drawn) [Example 84, 3-(1-(7-(8-ethylnaphthalen-1-yl)-2-((tetrahydro-1H-pyrrolizin-7a(5H)-yl)methoxy)-5,6,7,8-tetrahydropyrido[3,4-d]pyrimidin-4-yl)piperidin-3-yl)-1-methyl-1H-1,2,4-triazol-5-amine] | 734 | 104 | 161 | 838 | 215 | 696 | 291 | 2110 | 351
CCc1cccc2cccc(N3CCc4c(nc(OCC56CCCN5CCC6)nc4N4CCC(O)C(CO)C4)C3)c12 (stereo not drawn) [Example 109, 1-(7-(8-ethylnaphthalen-1-yl)-2-((tetrahydro-1H-pyrrolizin-7a(5H)-yl)methoxy)-5,6,7,8-tetrahydropyrido[3,4-d]pyrimidin-4-yl)-3-(hydroxymethyl)piperidin-4-ol] | 898 | 387 | 456 | 519 | 735 | 893 | 690 | 1770 | 612
CCc1cccc2cccc(N3CCc4c(nc(OCC56CCCN5CCC6)nc4N4CCCn5nccc5C4)C3)c12 [Example 51, 4-(7,8-dihydro-4H-pyrazolo[1,5-a][1,4]diazepin-5(6H)-yl)-7-(8-ethylnaphthalen-1-yl)-2-((hexahydro-1H-pyrrolizin-7a-yl)methoxy)-5,6,7,8-tetrahydropyrido[3,4-d]pyrimidine] | 1930 | 492 | 564 | 1370 | 1260 | 2030 | 652 | 309 | 669
CCc1cccc2cccc(N3CCc4c(nc(OCC56CCCN5CCC6)nc4N4CCCC(n5cccn5)C4)C3)c12 (stereo not drawn) [Example 82, 4-(3-(1H-pyrazol-1-yl)piperidin-1-yl)-7-(8-ethylnaphthalen-1-yl)-2-((tetrahydro-1H-pyrrolizin-7a(5H)-yl)methoxy)-5,6,7,8-tetrahydropyrido[3,4-d]pyrimidine] | 606 | 291 | 475 | 712 | 628 | 552 | 958 | 1120 | 696
CCc1cccc2cccc(N3CCc4c(nc(OCC56CCCN5CCC6)nc4N4CCCC(O)(C(F)F)C4)C3)c12 (stereo not drawn) [Example 44, 3-(difluoromethyl)-1-(7-(8-ethylnaphthalen-1-yl)-2-((hexahydro-1H-pyrrolizin-7a-yl)methoxy)-5,6,7,8-tetrahydropyrido[3,4-d]pyrimidin-4-yl)piperidin-3-ol] | 226 | 308 | 232 | 191 | 202 | 163 | 200 | 162 | 202
CCc1cccc2cccc(N3CCc4c(nc(OCC56CCCN5CCC6)nc4N4CC(C)CC(CO)C4)C3)c12 (stereo not drawn) [Example 133, (1-(7-(8-ethylnaphthalen-1-yl)-2-((tetrahydro-1H-pyrrolizin-7a(5H)-yl)methoxy)-5,6,7,8-tetrahydropyrido[3,4-d]pyrimidin-4-yl)-5-methylpiperidin-3-yl)methanol] | 1440 | 781 | 871 | 1340 | 1020 | 1500 | 936 | 945 | 1020
CCc1cccc2cccc(N3CCc4c(nc(OCC56CCCN5CCC6)nc4N4CCC(O)C(CO)CC4)C3)c12 (stereo not drawn) [Example 13, 1-(7-(8-ethylnaphthalen-1-yl)-2-((tetrahydro-1H-pyrrolizin-7a(5H)-yl)methoxy)-5,6,7,8-tetrahydropyrido[3,4-d]pyrimidin-4-yl)-5-(hydroxymethyl)azepan-4-ol] | 57 | 99 | 82 | 41 | 51 | 40 | 73 | 290 | 70

Now from value to molecule:

IC50 (KRas^Q61H) [nM] | IC50 (KRas^G12R) [nM] | IC50 (KRas^G12C) [nM] | IC50 (KRas^WT) [nM] | IC50 (KRas^G12A) [nM] | IC50 (KRas^G13D) [nM] | IC50 (KRas^G12V) [nM] | IC50 (KRas^G12D) [nM] | IC50 (KRas^G12S) [nM] | Compound
6550 | 7470 | 3870 | 5920 | 8670 | 6710 | 4340 | 14200 | 8070 | CCc1cccc2cccc(N3CCc4c(nc(OCC56CCCN5CCC6)nc4NCCS(=O)(=O)N=S(C)(C)=O)C3)c12 [Example 165, N-(dimethyl(oxo)-16-sulfaneylidene)-2-((7-(8-ethylnaphthalen-1-yl)-2-((tetrahydro-1H-pyrrolizin-7a(5H)-yl)methoxy)-5,6,7,8-tetrahydropyrido[3,4-d]pyrimidin-4-yl)amino)ethane-1-sulfonamide]
1210 | 460 | 928 | 1150 | 1110 | 1400 | 1810 | 3040 | 1350 | CCc1cccc2cccc(N3CCc4c(nc(OCC56CCCN5CCC6)nc4N4CCCC(c5ccn[nH]5)C4)C3)c12 (stereo not drawn) [Example 115, 4-(3-(1H-pyrazol-5-yl)piperidin-1-yl)-7-(8-ethylnaphthalen-1-yl)-2-((tetrahydro-1H-pyrrolizin-7a(5H)-yl)methoxy)-5,6,7,8-tetrahydropyrido[3,4-d]pyrimidine]
5560 | 1810 | 1650 | 5120 | 3010 | 5720 | 1620 | 874 | 2030 | CCc1cccc2cccc(N3CCc4c(nc(OCC56CCCN5CCC6)nc4N4CCCn5nc(C)cc5C4)C3)c12 [Example 56, 7-(8-ethylnaphthalen-1-yl)-2-((hexahydro-1H-pyrrolizin-7a-yl)methoxy)-4-(2-methyl-7,8-dihydro-4H-pyrazolo[1,5-a][1,4]diazepin-5(6H)-yl)-5,6,7,8-tetrahydropyrido[3,4-d]pyrimidine]
1420 | 723 | 662 | 2220 | 1270 | 1150 | 348 | 1230 | 584 | CCc1cccc2cccc(N3CCc4c(nc(OCC56CCCN5CCC6)nc4N4CC5CNC(=O)C5C4)C3)c12 (stereo not drawn) [Example 52, 5-(7-(8-ethylnaphthalen-1-yl)-2-((hexahydro-1H-pyrrolizin-7a-yl)methoxy)-5,6,7,8-tetrahydropyrido[3,4-d]pyrimidin-4-yl)hexahydropyrrolo[3,4-c]pyrrol-1(2H)-one]
2100 | 1320 | 573 | 1810 | 1530 | 2010 | 4210 | 6380 | 2480 | CCc1cccc2cccc(N3CCc4c(nc(OCC56CCCN5CCC6)nc4N4CCCC(c5nc(C)c(C)[nH]5)C4)C3)c12 (stereo not drawn) [Example 120, 4-(3-(4,5-dimethyl-1H-imidazol-2-yl)piperidin-1-yl)-7-(8-ethylnaphthalen-1-yl)-2-((tetrahydro-1H-pyrrolizin-7a(5H)-yl)methoxy)-5,6,7,8-tetrahydropyrido[3,4-d]pyrimidine]
4670 | 4920 | 4420 | 3170 | 1860 | 4860 | 7310 | 22400 | 3400 | CCc1cccc2cccc(N3CCc4c(nc(OCC56CCCN5CCC6)nc4NCc4c5c(n[nH]c4=O)CCCC5)C3)c12 [Example 155, 4-(((7-(8-ethylnaphthalen-1-yl)-2-((tetrahydro-1H-pyrrolizin-7a(5H)-yl)methoxy)-5,6,7,8-tetrahydropyrido[3,4-d]pyrimidin-4-yl)amino)methyl)-5,6,7,8-tetrahydrocinnolin-3(2H)-one]
≤ 2 | ≤ 2 | ≤ 2 | ≤ 2 | ≤ 2 | ≤ 2 | ≤ 2 | 3 | ≤ 2 | CCc1cccc2cccc(N3CCc4c(nc(OCC56CCCN5CCC6)nc4N4CCCC5(C4)NC(=O)NC5=O)C3)c12 (stereo not drawn) [Example 12, 7-(7-(8-ethylnaphthalen-1-yl)-2-((tetrahydro-1H-pyrrolizin-7a(5H)-yl)methoxy)-5,6,7,8-tetrahydropyrido[3,4-d]pyrimidin-4-yl)-1,3,7-triazaspiro[4.5]decane-2,4-dione]
